From patent US20180319865A1, “Identification of Novel Small Molecule Beta2 Integrin Agonists” (Rush University Medical Center, priority 2016, published 2018)

These compounds were tested against T1, mutant integrin CD11bE320A/CD18 (Homo sapiens, UniProt P11215, E336A) (assay: HTS cell adhesion assay, K562 E320A cells on immobilized fibrinogen). Conditions: Table 3, adhesion to fibrinogen, five point dose-response.
T1 construct: expressed in transfected cells; host or cells: K562 (ATCC)
Assay type: cell-based
Procedure: K562 cells stably expressing CD11c/CD18 (K562 CD11c/CD18) were generated similarly. […] K562 cells stably transfected with mutant integrin CD11bE320A/CD18 (K562 E320A) were generated according to literature protocols. All cell lines were maintained in Iscove's Modified Dulbecco's Medium (IMDM) supplemented with 10% heat-inactivated fetal bovine serum, 50 IU/mL penicillin and streptomycin and 0.5 mg/mL G418.
Cell adhesion assays with immobilized ligands were performed using the general protocol previously described and as illustrated in FIG. 1 [33]. Assays with all different K562 cell lines (K562, K562 CD11b/CD18, K562 CD11c/CD18 and K562 E320A) were performed in an identical fashion. Briefly, 384-well microplates (Corning 3700) were coated with 15 μg/mL fibrinogen (Fg) ligand in PBS^++ overnight at 4° C. At the same time, anti-CD18 (IB4) mAb was also coated. Subsequently, the coated wells were washed with 1% nonfat milk in TBS at room temperature for 1 hour. Next, the wells were washed 3 times with TBS, and the coated microplates were used in the HTS assays.
K562 CD11b/CD18, K562 CD11bE320A/CD18 and K562 CD11c/CD18 cells were washed with TBS, and cells were transferred to the Fg-coated wells of microplates in the assay buffer (Ca^2+ and Mg^2+ for physiological condition, Mn^2+ as the Positive control). A 1 μL aliquot of the compounds were transferred to each washed well with multichannel pipet from the 384-well plates.
The assay plates were incubated at 37° C. in the presence of small-molecule compounds for 30 min. To dislodge the non-adherent cell, the assay plates were gently inverted and kept in inverted position for 20 min at room temperature.
The cells were fixed with 37% formaldehyde in a small volume and the plates were kept inverted for 1 h. Upon the fixation, the solutions in the well were discarded. Next, the cells were fluorescently labeled with DAPI (0.5 μM final in TBS with 0.1% Triton X-100) and the quantitated with “Opera High Content Screening System” (Perkin Elmer).
Cell-adhesion under positive and negative control conditions was used to define the activity scale; signal corresponding to the number of non-small molecule treated cells adherent in activating buffer condition (in the presence of Mn^2+ ions as agonist, PC) was considered maximum (100% binding) and the signal corresponding to the number of non-small molecule treated cells adherent in basal buffer condition (in the presence of 1 mM each of Ca^2+ and Mg^2+, NC) was considered minimum (0% binding).

T1 sequence (P11215 17-1152 E336A): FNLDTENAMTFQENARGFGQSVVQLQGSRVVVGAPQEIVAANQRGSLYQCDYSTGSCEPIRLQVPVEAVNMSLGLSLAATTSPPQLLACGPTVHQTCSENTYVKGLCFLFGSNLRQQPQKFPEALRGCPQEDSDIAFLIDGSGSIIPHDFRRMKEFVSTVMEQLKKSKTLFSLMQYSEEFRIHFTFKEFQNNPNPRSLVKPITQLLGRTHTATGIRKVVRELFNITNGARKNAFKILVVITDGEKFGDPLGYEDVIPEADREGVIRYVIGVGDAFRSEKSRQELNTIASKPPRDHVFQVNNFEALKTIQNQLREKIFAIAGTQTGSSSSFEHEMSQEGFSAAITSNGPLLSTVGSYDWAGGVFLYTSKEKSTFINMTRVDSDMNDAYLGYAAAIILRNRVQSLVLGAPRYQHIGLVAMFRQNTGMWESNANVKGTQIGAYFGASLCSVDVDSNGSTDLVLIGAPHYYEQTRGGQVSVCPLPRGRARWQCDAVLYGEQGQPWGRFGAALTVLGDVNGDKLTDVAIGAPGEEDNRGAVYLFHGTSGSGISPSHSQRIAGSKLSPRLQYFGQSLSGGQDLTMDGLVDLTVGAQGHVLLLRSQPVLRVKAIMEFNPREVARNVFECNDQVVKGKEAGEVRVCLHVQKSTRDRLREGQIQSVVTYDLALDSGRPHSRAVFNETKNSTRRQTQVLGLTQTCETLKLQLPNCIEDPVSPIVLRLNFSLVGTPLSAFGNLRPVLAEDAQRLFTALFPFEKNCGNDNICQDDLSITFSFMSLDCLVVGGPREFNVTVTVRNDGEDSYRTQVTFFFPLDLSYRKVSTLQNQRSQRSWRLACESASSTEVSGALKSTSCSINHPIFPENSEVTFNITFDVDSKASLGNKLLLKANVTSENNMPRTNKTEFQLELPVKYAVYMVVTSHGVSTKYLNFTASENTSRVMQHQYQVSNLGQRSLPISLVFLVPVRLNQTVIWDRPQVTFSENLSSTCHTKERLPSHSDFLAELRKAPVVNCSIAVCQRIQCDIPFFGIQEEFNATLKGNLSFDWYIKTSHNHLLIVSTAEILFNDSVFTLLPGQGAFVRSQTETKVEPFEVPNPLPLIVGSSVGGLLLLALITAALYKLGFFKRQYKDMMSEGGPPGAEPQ
T1 sequence (P05107 23-769 partner): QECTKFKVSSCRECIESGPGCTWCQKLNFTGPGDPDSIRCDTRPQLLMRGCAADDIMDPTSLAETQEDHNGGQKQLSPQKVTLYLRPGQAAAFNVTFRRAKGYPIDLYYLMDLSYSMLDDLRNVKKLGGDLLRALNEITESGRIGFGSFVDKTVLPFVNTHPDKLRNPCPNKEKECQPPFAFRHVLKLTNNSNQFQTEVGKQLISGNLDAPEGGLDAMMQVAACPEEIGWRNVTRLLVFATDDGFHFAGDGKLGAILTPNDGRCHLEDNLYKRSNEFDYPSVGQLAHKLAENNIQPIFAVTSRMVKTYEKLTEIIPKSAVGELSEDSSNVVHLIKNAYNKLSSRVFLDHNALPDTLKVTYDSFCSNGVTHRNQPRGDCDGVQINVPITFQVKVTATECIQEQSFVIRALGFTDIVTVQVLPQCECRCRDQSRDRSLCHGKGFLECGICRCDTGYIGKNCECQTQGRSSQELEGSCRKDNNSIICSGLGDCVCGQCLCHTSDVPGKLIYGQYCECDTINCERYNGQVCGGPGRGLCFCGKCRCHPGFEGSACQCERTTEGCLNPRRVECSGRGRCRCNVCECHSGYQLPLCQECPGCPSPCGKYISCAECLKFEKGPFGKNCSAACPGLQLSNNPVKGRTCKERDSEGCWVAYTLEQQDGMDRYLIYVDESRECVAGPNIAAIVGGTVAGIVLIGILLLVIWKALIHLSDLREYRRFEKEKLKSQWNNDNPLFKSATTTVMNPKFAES

SMILES | EC50 [µM] | EC50 E320A
O=c1cc(CN2CCN(c3cccc(Cl)c3)CC2)c2cc(O)c(-c3ccccc3)cc2o1 [Compound 3287222] | 16.5 | 
CN(C)c1ccc(NC(=O)Cn2ncn3c(cc4ccccc43)c2=O)cc1 [Compound 3244843] | 46.2 | 
O=C(NCc1ccco1)c1c2c(nc3ccccc13)CCC2 [Compound 862194] | 15.2 | 
O=C1NC(=O)N(c2ccc(F)cc2)C(=O)/C1=C/c1ccc2c(c1)CCCN2Cc1ccccc1 [Compound 1997460] | 6.23 | 
Cc1cc(C=C2C(=O)CCCC2=O)c(C)n1-c1ccccc1 [Compound 2313216] | 28.3 | 
O=C(N/N=C\c1ccc(-c2ccc([N+](=O)[O-])cc2)o1)c1ccc2c(c1)OCO2 [Compound 5497396] | 11.7 | 
CCOC(=O)c1sc(NC(=O)CSc2nnnn2-c2ccccc2)c(C(=O)OCC)c1C [Compound 2132989] | 18 | 
O=C(Cc1cccs1)Nc1nnc(SCc2cccc3ccccc23)s1 [Compound 7191378] | 8.13 | 
O=C(CNC(=O)c1cc2c(s1)CCC2)Nc1ccccc1Br [Compound 2537029] | 8760 | 
COc1cccc2cc(/C(C)=N/Nc3nc(-c4cc(C)ccc4C)cs3)c(=O)oc12 [Compound 9594695] | 17.5 | 
Nc1c(C(=O)Nc2cccc(Cl)c2Cl)sc2nc(-c3cccnc3)ccc12 [Compound 1976060] | 0.315 | 
COc1ccc(/C=c2\sc3nc(-c4ccccc4OC)nn3c2=O)c(OC)c1 [Compound 1827856] | 7.03 | 
CCCCN1C(=O)/C(=C/c2ccc(N3CCCCCC3)cc2)C(=O)NC1=S [Compound 2067755] | 78.3 | 
N#Cc1cccc(NC(=O)CSc2ccc3c4c(cccc24)C(=O)c2ccccc2-3)c1 [Compound 4835204] |  | Infinite
CCOc1cc(/C=C2/N=C(c3ccc(C(C)(C)C)cc3)OC2=O)cc(Cl)c1OS(C)(=O)=O [Compound 2182821] | 8.51 | 
COc1ccc(-c2nn(C)c(=O)c3ccccc23)cc1NC(=O)Cn1nc(C)c2ccccc2c1=O [Compound 1314910] | 11.7 | 
CCOC(=O)N1CCC(NC(=O)c2cccc3c2C(=O)N(c2ccc(OC)cc2)C3)CC1 [Compound 5307705] | 9.93 | 
COc1ccc(NC(=O)CCC(=O)OCC(=O)c2ccc(Oc3ccc([N+](=O)[O-])cc3)cc2)cc1 [Compound 2912337] | 12.4 | 
CC1=NN(c2nc(-c3ccc(C)cc3)cs2)C(=O)C1N=Nc1ccc2ccccc2c1 (stereo not drawn) [Compound 3101589] | 13.4 | 

SMILES | EC50 [µM] | EC50 E320A
CCOC(=O)C(Cc1ccccc1)C(=O)Nc1ccc(NC(=O)C(Cc2ccccc2)C(=O)OCC)cc1 (stereo not drawn) [Compound 2836867] | 121 | 
O=C(Nc1ccc2nn(-c3ccccc3)nc2c1)c1ccc2c(c1)OCO2 [Compound 2208079] | 568 | 
CCC1CCCCN1S(=O)(=O)c1ccc(S(=O)(=O)N2CCN(S(=O)(=O)CC)CC2)cc1 (stereo not drawn) [Compound 651007] | 8.18 | 
N#Cc1ccc(CSc2nnc(NC(=O)C3CC(=O)N(c4ccc5c(c4)OCCO5)C3)s2)cc1 (stereo not drawn) [Compound 4831224] | 11.1 | 
Cc1cc(C=C2C(=O)N(C)C(=S)N(C)C2=O)c(C)n1C1CCCCC1 [Compound 1347165] | 171 | 
Cc1ccc(-n2c(=O)c(C#N)cc3c(=O)n4cccc(C)c4nc32)cc1 [Compound 9550569] | 8.22 | 
O=C(CSc1nc2sc3c(c2c(=O)n1-c1ccccc1)CCCC3)NCc1ccco1 [Compound 1322134] | 12.1 | 
O=C(Nc1ccc(Cl)cc1)[C@@H]1[C@@H]2C(=O)N(c3ccc(Cl)cc3Cl)C(=O)[C@@H]2[C@H]2C=CC=NN21 [Compound 9551824] | 22.3 | 
COc1ccccc1CNC(=O)c1ccc2nc3[nH]c4ccccc4c3nc2c1 [Compound 6079611] | 9.05 | 
O=C(NCCN1C(=O)S/C(=C\c2ccccc2)C1=O)c1cc(S(=O)(=O)N2CCOCC2)c(Cl)cc1Cl [Compound 5774232] | 8.84 | 
Cc1csc(NC(=O)CSc2nc3sc(C)c(C)c3c(=O)[nH]2)n1 [Compound 650604] | 9.43 | 
Cc1ccc(-c2noc(C3CCCN(S(=O)(=O)c4ccc(S(=O)(=O)N(C)C)cc4)C3)n2)o1 (stereo not drawn) [Compound 3226283] | 6.69 | 
CC(C)CN(C(=O)COC(=O)c1cc2c(s1)CCC2)C1CCS(=O)(=O)C1 (stereo not drawn) [Compound 2998734] | 8.02 | 
O=C(Cc1coc2cc3c(cc12)CCC3)OCc1cc(=O)n2c(n1)sc1ccccc12 [Compound 3000165] | 9.02 | 
O=C(Cn1c2ccccc2c(=O)c2cc([N+](=O)[O-])ccc21)Nc1ccccc1Cl [Compound 15944880] | 10.1 | 
C=CCOC(=O)C(C#N)c1nc2ccccc2nc1N1CCN(Cc2ccc3c(c2)OCO3)CC1 (stereo not drawn) [Compound 660507] | 18.5 | 
NC(=O)c1cc(-c2ccccc2)sc1NC(=O)Cc1ccc(S(=O)(=O)N2CCOCC2)s1 [Compound 2121076] | 19.4 | 
CC(=O)NC(=S)Nc1ccc(-c2nc3ccc(C)cc3s2)cc1 [Compound 1226649] | 8.47 | 
Cc1ccc2sc(-c3ccc(NC(=O)CCN4C(=O)c5ccccc5C4=O)cc3)nc2c1 [Compound 1193278] | 5.17 | 

SMILES | EC50 [µM] | EC50 E320A
CCCC(=O)Nc1ccc(-c2cnc(-c3ccc(NC(=O)CCC)cc3)nc2)cc1 [Compound 1272696] |  | Infinite
COc1ccc(C(=O)Nc2ccc(N3CCCC3)cc2)cc1 [Compound 960708] | 101 | 
COc1ccc(C2=Nc3nc(-c4ccccc4)cn3C(c3ccc(OC)cc3)C2)cc1 (stereo not drawn) [Compound 4325421] | 999 | 
CC(=O)c1cccc(NC(=O)Nc2cc3sccc3n2C)c1 [Compound 5307308] | 18.7 | 
COc1ccc(OC)c(NS(=O)(=O)Cc2ccccc2)c1 [Compound 743624] | 15.7 | 
COc1ccc(N=c2oc3ccc(OC)cc3cc2-c2nc3ccccc3[nH]2)cc1 [Compound 1212121] | 18.8 | 
COc1cc2c(cc1NC(=O)c1cc(-c3ccncc3)nc3ccccc13)oc1ccccc12 [Compound 2098333] | 0.441 | 
Cc1ccc(/C=C2\SC(=S)N(CC(=O)Nc3ncc(Cc4ccccc4Cl)s3)C2=O)cc1 [Compound 1871747] | 15.4 | 
Cc1cc(C)cc(-n2c3nc4ccccc4nc3c3c(=O)n(Cc4ccco4)cnc32)c1 [Compound 660761] | 8.8 | 
N#Cc1ccsc1NC(=O)CSc1ncnc2ccccc12 [Compound 2369720] | 11.3 | 
Cc1ccccc1-c1ccc(Nc2ccc(N3CCOCC3)cc2)nn1 [Compound 646977] | 10.1 | 
Cc1nn2c(-c3cccc(NC(=O)CSc4nc5ccccc5o4)c3)nnc2c2ccccc12 [Compound 1290769] | 7.82 | 
CCS(=O)(=O)N1CCC(C(=O)NCCCN2CCCCCC2)CC1 [Compound 3244583] | 9.7 | 
O=C(Nc1ccc(Br)cc1Cl)c1cnccn1 [Compound 1245695] | 8.47 | 
C=CCn1c(SCC(=O)Nc2sccc2C#N)nc2sc(C)c(C)c2c1=O [Compound 1564171] | 14.8 | 
CSc1nc(NCCOCCO)c2sc3nc(-c4ccco4)c4c(c3c2n1)CCC4 [Compound 665043] | 9.23 | 
CCCSc1nnc(NC(=O)c2sc3nc(-c4cccs4)ccc3c2N)s1 [Compound 1773030] | 7.74 | 
Cc1oc(-c2ccc(F)cc2)cc1-c1nn2c(-c3ccoc3C)nnc2s1 [Compound 2145571] | 12.1 | 
CCCCn1c(=O)[nH]c(=O)c2c1nc(-c1ccc(-c3ccccc3Br)o1)n2CCOC [Compound 3908086] | 12.2 | 
